Holding throughout (experiment): NCI-60 cell line screen, 48 h
Assay [1] concerns SF-539 CNS.
Assay [2] deals with COLO 205 colon.
Assay [3] concerns HL-60(TB) leukemia.
The subject of assay [4] is MDA-MB-435.
Assay [5] has as its system HS 578T breast.
Assay [6] has as its system DU-145 prostate.
In assay [7] the test system is KM12 colon.
Assay [8] concerns IGROV1 ovarian.
For assay [9], the system named is OVCAR-5 ovarian.
Assay [10] concerns HOP-92 NSCLC.

The structures appear in SMILES notation.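 Dose response: 5 concentrations. Exposure: 48 h. Format: 96-well plates. Endpoint: linear interpolation; highest concentration if not reached. At the GI50, growth is halved. TGI denotes the concentration required for complete inhibition of growth.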

As to `CCn1c(SCc2ccc(C)cc2)nnc1-c1nn(-c2ccc(Cl)cc2Cl)c(-c2ccc(Cl)cc2)c1C`, the GI50 in assay [1] was 3.02 µM; in assay [2], 1.51 µM; in assay [3], 1.6 µM; in [4], 2.85 µM; in [5] it was 3.3 µM; in assay [6], 3.3 µM. Also, the GI50 in assay [7] was 1.04 µM; in assay [8], 2.62 µM; in [9], 3.54 µM; in assay [10] it was 0.53 µM. Besides, the TGI in assay [1] was 11.8 µM; in [2] it was 3.39 µM; in assay [3], 5.47 µM; in assay [4], 11.5 µM; in [5], 18.4 µM; in [6] it was 13.8 µM. Moreover, the TGI worked out at 6.31 µM in [7], 15.4 µM in assay [8], 15.2 µM in assay [9] and 4.22 µM in assay [10].
With `COc1c(CCl)cc(-c2cc(=O)c3ccccc3s2)cc1CCl`, the TGI in assay [1] is above 42.3 µM; in assay [2], above 100 µM; in [3] it was above 23.6 µM; in [4], above 100 µM; in assay [5] it was 59.6 µM; in assay [6] it was above 100 µM. In addition, the TGI in assay [7] was above 100 µM; in [8] it was above 100 µM; in assay [9] it was above 100 µM; in assay [10], 1.8 µM.
With `Nc1ccn(C2CCC(CO)O2)c(=O)n1` (stereo unspecified), the GI50 in [1], in assay [2], in assay [7], in assay [8], in [9] and in [10] was above 1000 µM throughout. The TGI in [1], in [2], in assay [3], in assay [4], in assay [5] and in [6] was above 1000 µM in each case. Moreover, the TGI in assay [7], in assay [8], in assay [9] and in assay [10] was above 1000 µM in each case.
For `O=C1NC(=O)C(CC2CCCCCCCCCCC2=O)C(=O)N1` (stereo unspecified), the TGI in assay [1], in assay [2], in [3], in [4], in [5] and in assay [6] was above 100 µM throughout. Moreover, the TGI in assay [7], in assay [8], in [9] and in assay [10] was above 100 µM each time.
Turning to `CC/C=C\C[C@H]1C/C=C2/C(=O)C=C[C@@H]2C/C=C\CCCC(=O)O1`, the GI50 is 0.855 µM in assay [1]; 0.708 µM in assay [2]; 0.439 µM in [3]; 0.37 µM in assay [4]; 4.34 µM in assay [5]; 0.816 µM in [6]. The GI50 in [7] is 0.94 µM; in [8], 1.69 µM; in [9] it was 0.567 µM; in [10] it was 2.34 µM. Also, the TGI amounted to 2.67 µM in [1]; 2.64 µM in [2]; 3.3 µM in [3]; 4.08 µM in assay [4]; 38.1 µM in assay [5]; 5.79 µM in assay [6]. Further, the TGI in assay [7] turned out to be 4.44 µM; in assay [8] it was 4.28 µM; in [9], 2.53 µM; in assay [10], 5.93 µM.
In the case of `C=C1C(=O)OC2/C=C(\COC(C)=O)CCC(OC(C)=O)C3=CC(OC3=O)C12` (stereo unspecified), the TGI was 16.4 µM in assay [1]; 6.54 µM in assay [2]; above 20.3 µM in [3]; 32.9 µM in assay [4]; 52.8 µM in assay [5]; above 100 µM in assay [6]. The TGI in assay [7] is 22.1 µM; in assay [8] it was above 56.3 µM; in assay [9] it was 33.3 µM; in assay [10], 12.5 µM.
For the compound `CC1=C(C(=O)Nc2ccc(F)c(Cl)c2)C(c2cccc(O)c2)NC(=O)N1` (stereo unspecified), the GI50 in assay [1] was above 100 µM; in assay [2], above 100 µM; in assay [3], 6.81 µM; in [4], 59.7 µM; in assay [5], 26.9 µM; in assay [6], above 100 µM. Besides, the GI50 is 61.4 µM in [7], 36.1 µM in [8], above 100 µM in [9] and 47.5 µM in assay [10]. In addition, the TGI in assay [1], in assay [2], in [3], in assay [4], in [5] and in [6] was above 100 µM throughout. Besides, the TGI in assay [7], in assay [8], in assay [9] and in [10] was above 100 µM throughout.
Turning to `O=S(=O)(Nc1cc(Sc2cccc3cccnc23)c(O)c2ccccc12)c1ccccc1`, the GI50 in [1] is 0.957 µM; in [2] it was 1.71 µM; in [3] it was 0.487 µM; in assay [4], 2.01 µM; in assay [5] it was 3.27 µM; in assay [6] it was 0.828 µM. For the same compound, the GI50 in assay [7] was 2.03 µM; in assay [8], 1.01 µM; in assay [9], 1.99 µM; in [10], 2.61 µM. The TGI in assay [1] is 5.13 µM; in assay [2], 3.7 µM; in assay [3], 4.69 µM; in [4] it was 12.6 µM; in assay [5], 79.3 µM; in assay [6], 9.83 µM. Besides, the TGI was 16.5 µM in [7], 6 µM in assay [8], 11 µM in assay [9] and 7.38 µM in [10].
For the compound `CC1=C[C@H]2c3c(c(O)c(O)c4oc(-c5ccccc5)cc(=O)c34)[C@H](c3cc(O)c(O)c4oc(-c5ccccc5)cc(=O)c34)[C@H]2C(C)(C)C1`, the GI50 in assay [1] was 0.364 µM; in assay [2], 1.48 µM; in assay [3], 2.33 µM; in assay [4], 0.435 µM; in [5] it was 0.412 µM; in [6] it was 0.408 µM. Moreover, the GI50 was 1.41 µM in [7], 0.486 µM in [8], 3.22 µM in assay [9] and 1.36 µM in assay [10]. The TGI in assay [1] was 7.52 µM; in assay [2], 11.6 µM; in assay [3], 7.33 µM; in [4], 5.74 µM; in assay [5], 10.2 µM; in [6], above 75 µM. The TGI came out at 8.96 µM in assay [7], 7.51 µM in assay [8], 13 µM in assay [9] and 5.84 µM in assay [10].
